Data: article PMC8765781, “A platform of assays for the discovery of anti-Zika small-molecules with activity in a 3D-bioprinted outer-blood-retina model” (PLoS ONE, 2022)
Where two headings read alike, the source gives them in different places.

Test system: wild-type ZIKV (Ugandan MR766 strain) in Vero cells
Assay: ZIKV cytopathic effect (CPE) inhibition qHTS assay, CellTiter-Glo readout
Assay type: cell-based, Zika virus
Details: for Emax: read-out: Max response
[1] = Zika virus, Vero, read-out: Log AC50 (M) (converted)
[2] = Zika virus, Vero, from Hill fit of the response curve, 50% of maximum activity response, 194 cherry-picked compounds, protocol name not given, read-out: AC50
[3] = Zika virus, Vero, potency in log units (Molar) from Hill fit of the response curve, 194 cherry-picked compounds, protocol name not given, read-out: Log AC50 (converted)
[4] = curve class v2 (Inglese et al. 2006)
[5] = difference between neutral response and maximum compound response
[6] = Zika virus, Vero, read-out: Log AC50 (converted)

Compound | CC-v2 (curve class classification of the dose response curve) | Efficacy | AC50 (Zika virus, Vero) [µM] | AC50 [1] [µM] | also measured
C/C=C(\C)C(=O)OC1CC2C(CC=C3CC(OC4CC(OC)C(OC5CC(OC)C(OC6CC(OC)C(OC7CC(OC)C(OC8CC(OC)C(OC9OC(CO)C(O)C(O)C9O)C(C)O8)C(C)O7)C(C)O6)C(C)O5)C(C)O4)CCC32C)C2(O)CCC(C(C)=O)C12C (stereo not drawn) [NCGC00381127-01] | – | – | – | – | AC50 (Zika virus, Vero, primary qHTS curve fit, 194 cherry-picked compounds, log10 of molar AC50, read-out: Log AC50 (converted)): 4.36 µM; AC50 (Zika virus, Vero, primary qHTS curve fit, values match uM against the Log AC50 column, read-out: AC50): 4.36 µM; Emax (Zika virus, Vero, response at highest concentration): 4.53%; Curve class (qHTS curve class, negative sign = inhibitory curve): -3
CC(C)(O)C(O)C(=O)OCc1ccc(O[C@@H]2O[C@H](CO)[C@@H](O)[C@H](O)[C@H]2O)cc1 (stereo partly drawn) [NCGC00381128-01] | -3 | -65.299 | 10 | 10 | –
CC1=CC2/C=C(\C)CCC(O)C3OC(C)(C)OC3CC(=O)OC23C(=O)NC(CC(C)C)C3C1C (stereo not drawn) [NCGC00381131-01] | -3 | -69.811 | 14.2 | 14.2 | –
C=C1C(=O)O[C@@H]2C(OC(=O)/C(C)=C\C)/C(C)=C\C(=O)/C=C(\C)C[C@H](O)[C@@H]12 (stereo partly drawn) [NCGC00381208-01] | -3 | -35.291 | 50.8 | 50.8 | –
CCC(C)C(=O)OC1CC(O)C23C4OCC5(C(O)CC2C1(C)C(O)O4)C3C(=O)CC1(C)C(c2ccoc2)CC2OC215 (stereo not drawn) [NCGC00381227-01] | – | – | – | – | AC50 [2]: 6.32 µM; AC50 [3]: 6.32 µM; CC-v2 (curve class classification of the dose response curve) [4]: -2.2; Efficacy [5]: -29.737
CC(=O)OC[C@]12C[C@H](OC(C)=O)C(C)=C[C@H]1O[C@@H]1[C@H](O)[C@@H](O)[C@@]2(C)[C@]12CO2 [NCGC00381306-01] | – | -39.385 | – | – | Log AC50 (M): -5.644 M; Max Resp: -23.356; AC50 (read-out: AC50): 2.27 µM
C=C1C(=O)OC2/C=C(\C)C3=CC(=O)C(C)(CC(OC(=O)/C(C)=C/COC(C)=O)C12)O3 (stereo not drawn) [NCGC00384503-01] | -2.1 | -109.374 | 31.7 | 31.7 | –
CC1=CC(=O)[C@@H](O)[C@]2(C)C3[C@@H](O)[C@@H]4OC(=O)[C@@H]([C@H]4C)[C@]3(C)C(=O)C[C@@H]12 (stereo partly drawn) [NCGC00384574-01] | -1.2 | -58.007 | 1.61 | 1.61 | –
C=C1CC2OC(=O)C(=C)C2C(OC(=O)/C(C)=C\C)CC2(C)OC1=CC2=O (stereo not drawn) [NCGC00384607-01] | -3 | -115.469 | 45.3 | 45.3 | –
COC1CCCC(C)OC(=O)Cc2cc(O)cc(O)c2C(=O)C1 (stereo not drawn) [NCGC00384664-01] | – | – | – | – | AC50 [2]: 45.3 µM; AC50 [3]: 45.3 µM; CC-v2 (curve class classification of the dose response curve) [4]: -3; Efficacy [5]: -54.826
C[C@@H]1O[C@@H](O[C@H]2[C@H](O[C@H]3CC[C@@]4(C)C(CC[C@]5(C)C4C=C[C@]46OC[C@@]7(CCC(C)(C)C[C@H]74)[C@@H](O[C@@H]4O[C@@H](C)[C@H](O)[C@@H](O)[C@H]4O)C[C@]65C)[C@]3(C)CO)O[C@H](CO)[C@@H](O)[C@@H]2O[C@@H]2O[C@H](CO)[C@@H](O)[C@H](O)[C@H]2O)[C@H](O)[C@H](O)[C@H]1O (stereo partly drawn) [NCGC00384707-01] | – | -27.107 | 6.18 | 6.18 | –
CC1=CC(=O)[C@@H](O)[C@]2(C)C3[C@@H](O)[C@@H]4OC(=O)[C@@H]([C@H]4C)[C@]3(C)C(=O)[C@H](O)[C@@H]12 (stereo partly drawn) [NCGC00384766-01] | – | – | – | – | AC50 [2]: 9.04 µM; AC50 [3]: 9.04 µM; Efficacy [5]: -50.694
COc1ccc(CC2C(=O)NC(C)C(=O)N(C)C3Cc4ccc(cc4)Oc4cc(ccc4OC4OC(CO)C(O)C(O)C4O)CC(C(=O)NC(C)C(=O)NC(C)C(=O)N2C)N(C)C3=O)cc1 (stereo not drawn) [NCGC00384826-01] | – | – | – | – | AC50 [2]: 6.18 µM; AC50 [3]: 6.18 µM; CC-v2 (curve class classification of the dose response curve) [4]: -2.2; Efficacy [5]: -63.548
CC(/C=C/C=C(\C)C(=O)O[C@@H]1O[C@H](CO[C@@H]2O[C@H](CO)[C@@H](O)[C@H](O)[C@H]2O)[C@@H](O)[C@H](O)[C@H]1O)=C\C=C\C=C(C)\C=C\C=C(/C)C(=O)O[C@@H]1C[C@](O)(C(=O)O)C[C@@H](O)[C@H]1OC(=O)/C=C/c1ccc(O)c(O)c1 [NCGC00384868-01] | -3 | -78.383 | 6.93 | 6.93 | –
C[C@@H]1C[C@@H]([C@@H](O)C(C)(C)O)O[C@H]2C[C@@]3(C)C(=C12)C[C@H](O)[C@H]1[C@@]2(C)CCC(=O)C(C)(C)C2CC[C@@]13C (stereo partly drawn) [NCGC00384870-01] | -3 | -67.591 | 15.9 | 15.9 | –
C=C[C@H]1[C@H](O[C@@H]2O[C@H](CO)[C@@H](O)[C@H](O)[C@H]2O)OC=C(C(=O)OC)[C@H]1CCO [NCGC00384878-01] | -3 | -80.569 | 20.2 | 20.2 | –
CC(=O)OC[C@]12C[C@H](OC(=O)CC(C)C)C(C)=C[C@H]1O[C@@H]1[C@H](O)C[C@@]2(C)[C@]12CO2 [NCGC00385002-01] | – | -46.392 | – | – | Log AC50 (M): -5.6492 M; Max Resp: -19.758; AC50 (read-out: AC50): 2.24 µM

Compound | CC-v2 (curve class classification of the dose response curve) | Efficacy | AC50 (Zika virus, Vero) [µM] | AC50 [1] [µM] | also measured
CC(=O)O[C@H]1CC2C(COC(=O)CC(C)C)=CO[C@@H](OC(=O)CC(C)C)C2[C@]12CO2 (stereo partly drawn) [NCGC00385012-01] | -3 | -34.82 | 31.7 | 31.7 | –
C/C=C/c1ccc2oc(-c3ccc(O)c(OC)c3)c(C)c2c1 [NCGC00385078-01] | -3 | -53.705 | 23.1 | 23.1 | –
CC(=O)OC12C(O)C(C)C3(O)C4C=C(C)C(=O)C4CC(CO)=CC3C1C2(C)C (stereo not drawn) [NCGC00385123-01] | -3 | -66.621 | 11.2 | 11.2 | –
COC(=O)[C@@]1(C)C(=O)C=C[C@]2(C)c3c(O)cc(C(C)C)cc3[C@H](O)[C@@H](OC(C)=O)C12 (stereo partly drawn) [NCGC00385132-01] | -3 | -68.661 | 14.2 | 14.2 | –
CC1CCC2(C(=O)OC3OC(CO)C(O)C(O)C3O)CCC3(C)C(=CCC4C5(C)CCC(O)C(C)(CO)C5CCC43C)C2C1(C)O (stereo not drawn) [NCGC00385137-01] | -3 | -66.194 | 6.11 | 6.11 | –
CC(C)c1c(O)ccc2c1CC[C@H]1C(C)(C)CCC[C@]21C [NCGC00385162-01] | – | -41.688 | 58 | – | Curve class: -3; AC50 [6]: 58 µM; Emax (Zika virus, Vero): -36.8%
C=C(C(=O)O[C@H]1C/C(C)=C/CC/C(CO)=C/[C@H]2OC(=O)C(=C)[C@H]12)C(O)CO (stereo partly drawn) [NCGC00385206-01] | -3 | -104.223 | 45.3 | 45.3 | –
COc1ccc(CC2C(=O)NC(C)C(=O)N(C)C3Cc4ccc(cc4)Oc4cc(ccc4OC4OC(CO)C(O)C(O)C4O)CC(C(=O)NC(C)C(=O)NC(CCC(=O)O)C(=O)N2C)N(C)C3=O)cc1 (stereo not drawn) [NCGC00385295-01] | -2.2 | -76.149 | 4.91 | 4.91 | –
COc1cc2c(cc1O)C1(Cc3ccc4c(c3C1O)OCO4)[N+](C)([O-])CC2 (stereo not drawn) [NCGC00385471-01] | – | -50.391 | 0.64 | 0.64 | –
C=C1C(=O)O[C@H]2CC(=C)[C@H]3CC[C@@](C)(O)[C@@H]3CC12 (stereo partly drawn) [NCGC00385616-01] | -3 | -31.171 | 73.1 | 73.1 | –
C[C@H]1CC[C@@]2(OC1)O[C@H]1CC3[C@@H]4CC[C@@H]5C[C@@H](O[C@@H]6O[C@H](CO)[C@@H](O[C@@H]7O[C@H](CO[C@@H]8OC[C@@H](O)[C@H](O)[C@H]8O)[C@@H](O[C@@H]8O[C@H](CO)[C@H](O)[C@H](O)[C@H]8O)[C@H](O)[C@H]7O)[C@H](O)[C@H]6O)CC[C@]5(C)C4CC[C@]3(C)[C@H]1[C@@H]2C (stereo partly drawn) [NCGC00385658-01] | – | – | – | – | AC50 [2]: 3.48 µM; AC50 [3]: 3.48 µM; Efficacy [5]: -25.029
C=C1C(=O)O[C@@H]2/C=C(\CO)CC/C=C(/C=O)C[C@H](O)[C@@H]12 [NCGC00385803-01] | – | -41.449 | 65.1 | – | Curve class: -3; AC50 [6]: 65.1 µM; Emax (Zika virus, Vero): -37.5%
C/C=C(/C)C(=O)OC1CC(C)(C)CC2C3=CCC4C5(C)CCC(O[C@@H]6O[C@H](C(=O)O)[C@@H](O)[C@H](O)[C@H]6O[C@@H]6O[C@H](CO)[C@H](O)[C@H](O[C@@H]7OC[C@H](O)[C@H](O)[C@H]7O[C@@H]7O[C@H](CO)[C@@H](O)[C@H](O)[C@H]7O)[C@H]6O)C(C)(C)C5CCC4(C)C3(C)C(O)C(O)C12CO (stereo partly drawn) [NCGC00386019-01] | – | -41.4 | 9.77 | 9.77 | –
CC(C)=CCC/C(C)=C/COCC1OC(n2ccc(=O)[nH]c2=O)C(O)C1O (stereo not drawn) [NCGC00386057-01] | – | -46.076 | 45.3 | 45.3 | –
CC1CCC2C(C)(C)C(O)CCC2(C)C12Cc1c(O)cc3c(c1O2)CNC3=N (stereo not drawn) [NCGC00386084-01] | – | -59.279 | 0.508 | 0.508 | –
COc1cccc(C)c1C(=O)O[C@@H]1C[C@H](O[C@H]2[C@H](O)C[C@H](O[C@@H]3CCC[C@H]4[C@H]3C=C[C@@H]3CCCC/C=C/[C@H]5C=C(C(=O)O)[C@@H](C)C[C@@]56OC(=O)C(=C6O)OC(=O)[C@@]34C)O[C@@H]2C)O[C@H](C)[C@H]1O [NCGC00386109-01] | – | -37.18 | 12.3 | 12.3 | –
